{"source": "paper PMC8373063", "about": "(2021)", "key": {"[1]": {"tested_on": "S3 (DNA, single strand) AAAAGAAGGAAGGTGATA", "test": "fluorescence polarization", "settings": "100 mM NaCl, 1 mM MgCl2; 20 mM HEPES, 25 °C, 0.5 μM compound"}, "[2]": {"tested_on": "RNA Seq9 (RNA, single strand) UUAAGGAAGUU", "test": "fluorescence polarization", "settings": "100 mM NaCl; 20 mM HEPES, 25 °C; 0.5 μM SMN-C2"}, "[3]": {"tested_on": "RNA Seq10 (RNA, single strand) UAAAGGAAGGU", "test": "fluorescence polarization", "settings": "100 mM NaCl; 20 mM HEPES, 25 °C; 0.5 μM SMN-C2"}, "[4]": {"tested_on": "RNA Seq7 (RNA, single strand) UUAAGGAAGGU", "test": "fluorescence polarization", "settings": "100 mM NaCl; 20 mM HEPES, 25 °C; 0.5 μM SMN-C2"}, "[5]": {"tested_on": "S22 (DNA, single strand) AAAAGAAAGAAGGTGCTC", "test": "fluorescence polarization", "settings": "100 mM NaCl, 1 mM MgCl2; 20 mM HEPES, 25 °C, 0.5 μM compound"}, "[6]": {"tested_on": "DNA Seq6 (DNA, single strand) TGAAGGAAGGT", "test": "ITC", "settings": "100 mM NaCl; 30 mM MES pH 6.1, 5% DMSO, 25 °C"}, "[7]": {"tested_on": "S24 (DNA, single strand) AAAAGAAGGAAAGTGCTC", "test": "fluorescence polarization", "settings": "100 mM NaCl, 1 mM MgCl2; 20 mM HEPES, 25 °C, 0.5 μM compound"}, "[8]": {"tested_on": "DNA S27 (DNA, single strand) AGAAGGAAGG", "test": "fluorescence polarization", "settings": "100 mM NaCl, 1 mM MgCl2; 20 mM HEPES, 25 °C; 0.5 μM SMN-C2"}, "[9]": {"tested_on": "DNA Seq10 (DNA, single strand) TAAAGGAAGGT", "test": "fluorescence polarization", "settings": "100 mM NaCl, 1 mM MgCl2; 20 mM HEPES, 25 °C; 0.5 μM SMN-C2"}, "[10]": {"tested_on": "RNA Seq12 (RNA, single strand) UGAAAGAAGGU", "test": "fluorescence polarization", "settings": "100 mM NaCl; 20 mM HEPES, 25 °C; 0.5 μM SMN-C2"}, "[11]": {"tested_on": "S13 (DNA, single strand) AAAAGAAGGTAGGTGCTC", "test": "fluorescence polarization", "settings": "100 mM NaCl, 1 mM MgCl2; 20 mM HEPES, 25 °C, 0.5 μM compound"}, "[12]": {"tested_on": "DNA Seq17 (DNA, single strand) TGAAGGAAGAT", "test": "fluorescence polarization", "settings": "100 mM NaCl, 1 mM MgCl2; 20 mM HEPES, 25 °C; 0.5 μM SMN-C2"}, "[13]": {"tested_on": "DNA Seq15 (DNA, single strand) TGAAGGATGGT", "test": "fluorescence polarization", "settings": "100 mM NaCl, 1 mM MgCl2; 20 mM HEPES, 25 °C; 0.5 μM SMN-C2"}, "[14]": {"tested_on": "S23 (DNA, single strand) AAAAGAAGAAAGGTGCTC", "test": "fluorescence polarization", "settings": "100 mM NaCl, 1 mM MgCl2; 20 mM HEPES, 25 °C, 0.5 μM compound"}, "[15]": {"tested_on": "DNA S8 (DNA, single strand) AAATGAAGGAAGGTGCTC", "test": "fluorescence polarization", "settings": "100 mM NaCl, 1 mM MgCl2; 20 mM HEPES, 25 °C; 0.5 μM SMN-C2"}, "[16]": {"tested_on": "RNA Seq17 (RNA, single strand) UGAAGGAAGAU", "test": "fluorescence polarization", "settings": "100 mM NaCl; 20 mM HEPES, 25 °C; 0.5 μM SMN-C2"}, "[17]": {"tested_on": "DNA Seq6 (DNA, single strand) TGAAGGAAGGT", "test": "fluorescence polarization", "settings": "100 mM NaCl, 1 mM MgCl2; 20 mM HEPES, 25 °C; 0.5 μM SMN-C2"}, "[18]": {"tested_on": "RNA Seq4 (RNA, single strand) AAGAAGGAAGGUGC", "test": "fluorescence polarization", "settings": "100 mM NaCl; 20 mM HEPES, 25 °C, 0.5 μM compound"}, "[19]": {"tested_on": "RNA Seq18 (binding site 1 sequence) (RNA, mismatch bulge abasic, pseudouridine at 5 and 6 of strand 1) AUACUUACCU/GGAGGUAAGUCU", "test": "fluorescence polarization", "settings": "100 mM NaCl; 20 mM HEPES, 25 °C; 0.5 μM SMN-C2"}, "[20]": {"tested_on": "S7 (DNA, single strand) AATAGAAGGAAGGTGCTC", "test": "fluorescence polarization", "settings": "100 mM NaCl, 1 mM MgCl2; 20 mM HEPES, 25 °C, 0.5 μM compound"}, "[21]": {"tested_on": "S25 (DNA, single strand) AAAAGAAGGAAGATGCTC", "test": "fluorescence polarization", "settings": "100 mM NaCl, 1 mM MgCl2; 20 mM HEPES, 25 °C, 0.5 μM compound"}, "[22]": {"tested_on": "RNA Seq14 (RNA, single strand) AGAAGGUAGGU", "test": "fluorescence polarization", "settings": "100 mM NaCl; 20 mM HEPES, 25 °C; 0.5 μM SMN-C2"}, "[23]": {"tested_on": "DNA S19 (DNA, single strand) AAAAGAGGGAAGGTGCTC", "test": "fluorescence polarization", "settings": "100 mM NaCl, 1 mM MgCl2; 20 mM HEPES, 25 °C; 0.5 μM SMN-C2"}, "[24]": {"tested_on": "DNA Seq9 (DNA, single strand) TTAAGGAAGTT", "test": "fluorescence polarization", "settings": "100 mM NaCl, 1 mM MgCl2; 20 mM HEPES, 25 °C; 0.5 μM SMN-C2"}, "[25]": {"tested_on": "S17 (DNA, single strand) AAAGGAAGGAAGGTGCTC", "test": "fluorescence polarization", "settings": "100 mM NaCl, 1 mM MgCl2; 20 mM HEPES, 25 °C, 0.5 μM compound"}, "[26]": {"tested_on": "S10 (DNA, single strand) AAAAGTAGGAAGGTGCTC", "test": "fluorescence polarization", "settings": "100 mM NaCl, 1 mM MgCl2; 20 mM HEPES, 25 °C, 0.5 μM compound"}, "[27]": {"tested_on": "DNA Seq8 (DNA, single strand) TGAAGGAAGTT", "test": "fluorescence polarization", "settings": "100 mM NaCl, 1 mM MgCl2; 20 mM HEPES, 25 °C; 0.5 μM SMN-C2"}, "[28]": {"tested_on": "S15 (DNA, single strand) AAAAGAAGGAATGTGCTC", "test": "fluorescence polarization", "settings": "100 mM NaCl, 1 mM MgCl2; 20 mM HEPES, 25 °C, 0.5 μM compound"}, "[29]": {"tested_on": "S11 (DNA, single strand) AAAAGATGGAAGGTGCTC", "test": "fluorescence polarization", "settings": "100 mM NaCl, 1 mM MgCl2; 20 mM HEPES, 25 °C, 0.5 μM compound"}, "[30]": {"tested_on": "S14 (DNA, single strand) AAAAGAAGGATGGTGCTC", "test": "fluorescence polarization", "settings": "100 mM NaCl, 1 mM MgCl2; 20 mM HEPES, 25 °C, 0.5 μM compound"}, "[31]": {"tested_on": "DNA S9 (DNA, single strand) AAAATAAGGAAGGTGCTC", "test": "fluorescence polarization", "settings": "100 mM NaCl, 1 mM MgCl2; 20 mM HEPES, 25 °C; 0.5 μM SMN-C2"}, "[32]": {"tested_on": "RNA Seq23 (RNA, mismatch bulge abasic) GCCAGGCGCACUUUCGAGUGCGCGAAGGAAGGCUGGC", "test": "fluorescence polarization", "settings": "100 mM NaCl; 20 mM HEPES, 25 °C, 0.5 μM compound"}, "[33]": {"tested_on": "DNA Seq14 (DNA, single strand) AGAAGGTAGGT", "test": "fluorescence polarization", "settings": "100 mM NaCl, 1 mM MgCl2; 20 mM HEPES, 25 °C; 0.5 μM SMN-C2"}, "[34]": {"tested_on": "RNA Seq15 (RNA, single strand) UGAAGGAUGGU", "test": "fluorescence polarization", "settings": "100 mM NaCl; 20 mM HEPES, 25 °C; 0.5 μM SMN-C2"}, "[35]": {"tested_on": "S2 (DNA, single strand) AAAAGAAGGAAGGAGCAC", "test": "fluorescence polarization", "settings": "100 mM NaCl, 1 mM MgCl2; 20 mM HEPES, 25 °C, 0.5 μM compound"}, "[36]": {"tested_on": "RNA Seq21 (RNA, hairpin) GCGCCGACUGAAGGAAGGAGUCGGCGC", "test": "fluorescence polarization", "settings": "100 mM NaCl; 20 mM HEPES, 25 °C, 0.5 μM compound"}, "[37]": {"tested_on": "RNA Seq22 (RNA, other) GUGCCAGUUCGCUGGCACUGAAGGAAGGU", "test": "fluorescence polarization", "settings": "100 mM NaCl; 20 mM HEPES, 25 °C, 0.5 μM compound"}, "[38]": {"tested_on": "RNA Seq6 (RNA, single strand) UGAAGGAAGGU", "test": "fluorescence polarization", "settings": "100 mM NaCl; 20 mM HEPES, 25 °C; 0.5 μM SMN-C2"}}, "data": [{"smiles": "CCN1CCN(c2ccc3cc(-c4cn5cc(C)nc(C)c5n4)c(=O)oc3c2)C[C@@H]1C", "values": [{"measurement": "Kd", "setting": "[1]", "result": "21.7 ± 2.7", "unit": "µM"}, {"measurement": "Kd", "setting": "[2]", "result": "> 100", "unit": "µM"}, {"measurement": "Kd", "setting": "[3]", "result": "> 100", "unit": "µM"}, {"measurement": "Kd", "setting": "[4]", "result": "42.3 ± 13.3", "unit": "µM"}, {"measurement": "Kd", "setting": "[5]", "result": "44.7 ± 7.2", "unit": "µM"}, {"measurement": "Kd", "setting": "[6]", "result": 4.8, "unit": "µM"}, {"measurement": "Kd", "setting": "[7]", "result": "36.8 ± 11.4", "unit": "µM"}, {"measurement": "Kd", "setting": "[8]", "result": "11.6 ± 1.7", "unit": "µM"}, {"measurement": "Kd", "setting": "[9]", "result": "> 100", "unit": "µM"}, {"measurement": "Kd", "setting": "[10]", "result": "> 100", "unit": "µM"}, {"measurement": "Kd", "setting": "[11]", "result": "26.4 ± 2.2", "unit": "µM"}, {"measurement": "Kd", "setting": "[12]", "result": "56.4 ± 10.4", "unit": "µM"}, {"measurement": "Kd", "setting": "[13]", "result": "41.1 ± 4.4", "unit": "µM"}, {"measurement": "Kd", "setting": "[14]", "result": "> > 50 µM"}, {"measurement": "Kd", "setting": "[15]", "result": "12.4 ± 0.4", "unit": "µM"}, {"measurement": "Kd", "setting": "[16]", "result": "48.2 ± 9.0", "unit": "µM"}, {"measurement": "Kd", "setting": "[17]", "result": "3.1 ± 0.7", "unit": "µM"}, {"measurement": "Kd", "setting": "[18]", "result": "21.7 ± 4.3", "unit": "µM"}, {"measurement": "Kd", "setting": "[19]", "result": "60 ± 36", "unit": "µM"}, {"measurement": "Kd", "setting": "[20]", "result": "17.3 ± 1.7", "unit": "µM"}, {"measurement": "Kd", "setting": "[21]", "result": "48 ± 7.8", "unit": "µM"}, {"measurement": "Kd", "setting": "[22]", "result": "9.9 ± 0.8", "unit": "µM"}, {"measurement": "Kd", "setting": "[23]", "result": "21.0 ± 1.1", "unit": "µM"}, {"measurement": "Kd", "setting": "[24]", "result": "> 100", "unit": "µM"}, {"measurement": "Kd", "setting": "[25]", "result": "16.5 ± 1.1", "unit": "µM"}, {"measurement": "Kd", "setting": "[26]", "result": "26.4 ± 2.2", "unit": "µM"}, {"measurement": "Kd", "setting": "[27]", "result": "14.7 ± 0.7", "unit": "µM"}, {"measurement": "Kd", "setting": "[28]", "result": "31.4 ± 4", "unit": "µM"}, {"measurement": "Kd", "setting": "[29]", "result": "26.3 ± 1.2", "unit": "µM"}, {"measurement": "Kd", "setting": "[30]", "result": "19.5 ± 2.3", "unit": "µM"}, {"measurement": "Kd", "setting": "[31]", "result": "56.2 ± 13.9", "unit": "µM"}, {"measurement": "Kd", "setting": "[32]", "result": "5.6 ± 1.7", "unit": "µM"}, {"measurement": "Kd", "setting": "[33]", "result": "> 100", "unit": "µM"}, {"measurement": "Kd", "setting": "[34]", "result": "9.4 ± 0.5", "unit": "µM"}, {"measurement": "Kd", "setting": "[35]", "result": "20.2 ± 1.7", "unit": "µM"}, {"measurement": "Kd", "setting": "[36]", "result": "4.6 ± 0.6", "unit": "µM"}, {"measurement": "Kd", "setting": "[37]", "result": "11.0 ± 0.8", "unit": "µM"}, {"measurement": "Kd", "setting": "[38]", "result": "17.5 ± 2.2", "unit": "µM"}]}]}
